Experimental data reported in ChEMBL document CHEMBL4804286, “3-amino-4-(4-(4 (dimethylcarbamoyl) phenyl)-1,4-diazepan-1-yl) thieno [2,3-b] pyridine-2-carboxamide for use in cancer therapy and formulations comprising the same” (2020).
Values joined by “and” are separate entries in the source; they are usually repeats but may differ in a detail not shown here. Identical values can stand only once. Active and inactive are the calls of the source. The calls are words filed in the database; no cut-off is given here.

How the values were obtained:
[1] = target: Serine/threonine-protein kinase MRCK gamma (Homo sapiens) (UniProt Q6DT37); assay: Inhibition of human DMPK2 assessed as percent of control at 2000 nM by KINOMEscan assay relative to control; parameters: scale not given: the % may be the effect or the level left
Myc-CaP [2] = assay: Antitumor activity against murine castration-resistant Myc-CaP cells xenografted in male FVB mouse assessed as suppression of tumor volume; type: functional
[3] = target: Serine/threonine-protein kinase RIO1 (Homo sapiens) (UniProt Q9BRS2); assay: Inhibition of human RIOK1 assessed as percent of control at 2000 nM by KINOMEscan assay relative to control; parameters: scale not given: the % may be the effect or the level left
[4] = tested on: Epidermal growth factor receptor (Homo sapiens), P00533 [UNDEFINED MUTATION]; assay: Inhibition of human EGFR L747-S752del/P753S double mutant assessed as percent of control at 2000 nM by KINOMEscan assay relative to control; parameters: scale not given: the % may be the effect or the level left
[5] = target: Serine/threonine-protein kinase BRSK2 (Homo sapiens) (UniProt Q8IWQ3); assay: Inhibition of human BRSK2 assessed as percent of control at 2000 nM by KINOMEscan assay relative to control; parameters: scale not given: the % may be the effect or the level left
[6] = target: Serine/threonine-protein kinase 33 (Homo sapiens) (UniProt Q9BYT3); assay: Inhibition of human STK33 assessed as percent of control at 2000 nM by KINOMEscan assay relative to control; parameters: scale not given: the % may be the effect or the level left
[7] = target: Serine/threonine-protein kinase 36 (Homo sapiens) (UniProt Q9NRP7); assay: Inhibition of human STK36 assessed as percent of control at 2000 nM by KINOMEscan assay relative to control; parameters: scale not given: the % may be the effect or the level left
[8] = tested on: Fibroblast growth factor receptor 3 (Homo sapiens), P22607 [G697C]; assay: Inhibition of human FGFR3 G697C mutant assessed as percent of control at 2000 nM by KINOMEscan assay relative to control; parameters: scale not given: the % may be the effect or the level left
[9] = target: Uncharacterized serine/threonine-protein kinase SBK3 (Homo sapiens) (UniProt P0C264); assay: Inhibition of human SgK110 assessed as percent of control at 2000 nM by KINOMEscan assay relative to control; parameters: scale not given: the % may be the effect or the level left
[10] = target: Receptor-type tyrosine-protein kinase FLT3 (Homo sapiens) (UniProt P36888); assay: Inhibition of human FLT3 assessed as percent of control at 2000 nM by KINOMEscan assay relative to control; parameters: scale not given: the % may be the effect or the level left
MDA-MB-468 = assay: Antitumor activity against human MDA-MB-468 cells xenografted in female immunodeficient NSG mouse assessed as decrease in tumor weight at 250 ppm, po incorporated into medicated diet for 13 days followed by 5 mg/kg, po dose administered daily and after 37 days administered 8 mg/kg, po dose; type: functional, organism-based
[11] = tested on: Tyrosine-protein kinase ABL1 (Homo sapiens), P00519 [M351T]; assay: Inhibition of phosphorylated human ABL1 M351T mutant assessed as percent of control at 2000 nM by KINOMEscan assay relative to control; parameters: scale not given: the % may be the effect or the level left
[12] = tested on: Serine/threonine-protein kinase B-raf (Homo sapiens), P15056 [V600E]; assay: Inhibition of human BRAF V600E mutant assessed as percent of control at 2000 nM by KINOMEscan assay relative to control; parameters: scale not given: the % may be the effect or the level left
[13] = target: Bone morphogenetic protein receptor type-2 (Homo sapiens) (UniProt Q13873); assay: Inhibition of human BMPR2 assessed as percent of control at 2000 nM by KINOMEscan assay relative to control; parameters: scale not given: the % may be the effect or the level left
[14] = target: Activin receptor type-2A (Homo sapiens) (UniProt P27037); assay: Inhibition of human ACVR2A assessed as percent of control at 2000 nM by KINOMEscan assay relative to control; parameters: scale not given: the % may be the effect or the level left
[15] = target: Serine/threonine-protein kinase PAK 3 (Homo sapiens) (UniProt O75914); assay: Inhibition of human PAK3 assessed as percent of control at 2000 nM by KINOMEscan assay relative to control; parameters: scale not given: the % may be the effect or the level left
[16] = target: Mitogen-activated protein kinase 11 (Homo sapiens) (UniProt Q15759); assay: Inhibition of human p38-beta assessed as percent of control at 2000 nM by KINOMEscan assay relative to control; parameters: scale not given: the % may be the effect or the level left
[17] = target: Ephrin type-A receptor 6 (Homo sapiens) (UniProt Q9UF33); assay: Inhibition of human EPHA6 assessed as percent of control at 2000 nM by KINOMEscan assay relative to control; parameters: scale not given: the % may be the effect or the level left
[18] = target: Serine/threonine-protein kinase Nek9 (Homo sapiens) (UniProt Q8TD19); assay: Inhibition of human NEK9 assessed as percent of control at 2000 nM by KINOMEscan assay relative to control; parameters: scale not given: the % may be the effect or the level left
[19] = target: Dual specificity mitogen-activated protein kinase kinase 3 (Homo sapiens) (UniProt P46734); assay: Inhibition of human MEK3 assessed as percent of control at 2000 nM by KINOMEscan assay relative to control; parameters: scale not given: the % may be the effect or the level left
[20] = tested on: Receptor-type tyrosine-protein kinase FLT3 (Homo sapiens), P36888 [UNDEFINED MUTATION]; assay: Inhibition of human FLT3 ITD/F691L double mutant assessed as percent of control at 2000 nM by KINOMEscan assay relative to control; parameters: scale not given: the % may be the effect or the level left
[21] = target: Mitotic checkpoint serine/threonine-protein kinase BUB1 (Homo sapiens) (UniProt O43683); assay: Inhibition of human BUB1 assessed as percent of control at 2000 nM by KINOMEscan assay relative to control; parameters: scale not given: the % may be the effect or the level left
[22] = target: Serine/threonine-protein kinase tousled-like 1 (Homo sapiens) (UniProt Q9UKI8); assay: Inhibition of human TLK1 assessed as percent of control at 2000 nM by KINOMEscan assay relative to control; parameters: scale not given: the % may be the effect or the level left
[23] = target: Cyclin-dependent kinase 13 (Homo sapiens) (UniProt Q14004); assay: Inhibition of human CDC2L5 assessed as percent of control at 2000 nM by KINOMEscan assay relative to control; parameters: scale not given: the % may be the effect or the level left
[24] = target: STE20/SPS1-related proline-alanine-rich protein kinase (Homo sapiens) (UniProt Q9UEW8); assay: Inhibition of human STK39 assessed as percent of control at 2000 nM by KINOMEscan assay relative to control; parameters: scale not given: the % may be the effect or the level left
[25] = target: Glycogen synthase kinase-3 alpha (Homo sapiens) (UniProt P49840); assay: Inhibition of human GSK3A assessed as percent of control at 2000 nM by KINOMEscan assay relative to control; parameters: scale not given: the % may be the effect or the level left; conditions: INHIBITOR
[26] = target: Cytoplasmic tyrosine-protein kinase BMX (Homo sapiens) (UniProt P51813); assay: Inhibition of human BMX assessed as percent of control at 2000 nM by KINOMEscan assay relative to control; parameters: scale not given: the % may be the effect or the level left
[27] = target: Calcium/calmodulin-dependent protein kinase kinase 2 (Homo sapiens) (UniProt Q96RR4); assay: Inhibition of human CAMKK2 assessed as percent of control at 2000 nM by KINOMEscan assay relative to control; parameters: scale not given: the % may be the effect or the level left
Myc-CaP [28] = assay: Inhibition of colony formation in murine castration-resistant Myc-CaP cells at 1 uM in presence of 5 uM enzalutamide by clonogenic assay relative to control; type: functional; conditions: Mus musculus
[29] = target: Serine/threonine-protein kinase Nek2 (Homo sapiens) (UniProt P51955); assay: Inhibition of human NEK2 assessed as percent of control at 2000 nM by KINOMEscan assay relative to control; parameters: scale not given: the % may be the effect or the level left

Chain of Receptor-type tyrosine-protein kinase FLT3 (Homo sapiens) (P36888 whole entry): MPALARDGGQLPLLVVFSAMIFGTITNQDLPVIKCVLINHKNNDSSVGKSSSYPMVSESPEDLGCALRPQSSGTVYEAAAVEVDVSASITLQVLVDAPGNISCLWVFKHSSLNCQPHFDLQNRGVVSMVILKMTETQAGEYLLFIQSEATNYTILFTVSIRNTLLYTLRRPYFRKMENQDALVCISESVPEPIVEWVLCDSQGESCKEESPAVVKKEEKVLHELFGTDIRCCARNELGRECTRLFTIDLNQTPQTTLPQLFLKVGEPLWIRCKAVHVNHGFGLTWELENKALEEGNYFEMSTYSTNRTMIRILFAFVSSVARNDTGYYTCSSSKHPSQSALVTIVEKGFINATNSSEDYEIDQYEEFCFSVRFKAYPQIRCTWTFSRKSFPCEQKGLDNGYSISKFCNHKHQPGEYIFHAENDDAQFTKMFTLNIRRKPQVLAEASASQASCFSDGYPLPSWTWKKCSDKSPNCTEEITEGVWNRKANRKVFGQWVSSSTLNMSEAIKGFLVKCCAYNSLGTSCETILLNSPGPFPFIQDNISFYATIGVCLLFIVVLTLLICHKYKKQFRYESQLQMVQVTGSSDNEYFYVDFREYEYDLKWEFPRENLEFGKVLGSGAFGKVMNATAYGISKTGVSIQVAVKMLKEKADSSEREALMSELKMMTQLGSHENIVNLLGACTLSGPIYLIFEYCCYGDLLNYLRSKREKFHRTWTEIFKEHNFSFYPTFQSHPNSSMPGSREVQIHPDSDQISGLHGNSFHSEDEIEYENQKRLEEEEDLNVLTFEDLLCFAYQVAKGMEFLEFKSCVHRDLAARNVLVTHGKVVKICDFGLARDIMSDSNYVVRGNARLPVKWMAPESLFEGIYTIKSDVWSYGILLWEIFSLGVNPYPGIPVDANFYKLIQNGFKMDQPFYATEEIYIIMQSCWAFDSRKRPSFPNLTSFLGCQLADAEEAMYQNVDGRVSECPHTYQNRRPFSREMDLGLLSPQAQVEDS
Chain of Receptor-type tyrosine-protein kinase FLT3 (Homo sapiens), P36888 [UNDEFINED MUTATION] (P36888 whole entry, looked up, stated change not applied): as the sequence (P36888 whole entry) above
Chain of Serine/threonine-protein kinase 36 (Homo sapiens) (Q9NRP7 whole entry): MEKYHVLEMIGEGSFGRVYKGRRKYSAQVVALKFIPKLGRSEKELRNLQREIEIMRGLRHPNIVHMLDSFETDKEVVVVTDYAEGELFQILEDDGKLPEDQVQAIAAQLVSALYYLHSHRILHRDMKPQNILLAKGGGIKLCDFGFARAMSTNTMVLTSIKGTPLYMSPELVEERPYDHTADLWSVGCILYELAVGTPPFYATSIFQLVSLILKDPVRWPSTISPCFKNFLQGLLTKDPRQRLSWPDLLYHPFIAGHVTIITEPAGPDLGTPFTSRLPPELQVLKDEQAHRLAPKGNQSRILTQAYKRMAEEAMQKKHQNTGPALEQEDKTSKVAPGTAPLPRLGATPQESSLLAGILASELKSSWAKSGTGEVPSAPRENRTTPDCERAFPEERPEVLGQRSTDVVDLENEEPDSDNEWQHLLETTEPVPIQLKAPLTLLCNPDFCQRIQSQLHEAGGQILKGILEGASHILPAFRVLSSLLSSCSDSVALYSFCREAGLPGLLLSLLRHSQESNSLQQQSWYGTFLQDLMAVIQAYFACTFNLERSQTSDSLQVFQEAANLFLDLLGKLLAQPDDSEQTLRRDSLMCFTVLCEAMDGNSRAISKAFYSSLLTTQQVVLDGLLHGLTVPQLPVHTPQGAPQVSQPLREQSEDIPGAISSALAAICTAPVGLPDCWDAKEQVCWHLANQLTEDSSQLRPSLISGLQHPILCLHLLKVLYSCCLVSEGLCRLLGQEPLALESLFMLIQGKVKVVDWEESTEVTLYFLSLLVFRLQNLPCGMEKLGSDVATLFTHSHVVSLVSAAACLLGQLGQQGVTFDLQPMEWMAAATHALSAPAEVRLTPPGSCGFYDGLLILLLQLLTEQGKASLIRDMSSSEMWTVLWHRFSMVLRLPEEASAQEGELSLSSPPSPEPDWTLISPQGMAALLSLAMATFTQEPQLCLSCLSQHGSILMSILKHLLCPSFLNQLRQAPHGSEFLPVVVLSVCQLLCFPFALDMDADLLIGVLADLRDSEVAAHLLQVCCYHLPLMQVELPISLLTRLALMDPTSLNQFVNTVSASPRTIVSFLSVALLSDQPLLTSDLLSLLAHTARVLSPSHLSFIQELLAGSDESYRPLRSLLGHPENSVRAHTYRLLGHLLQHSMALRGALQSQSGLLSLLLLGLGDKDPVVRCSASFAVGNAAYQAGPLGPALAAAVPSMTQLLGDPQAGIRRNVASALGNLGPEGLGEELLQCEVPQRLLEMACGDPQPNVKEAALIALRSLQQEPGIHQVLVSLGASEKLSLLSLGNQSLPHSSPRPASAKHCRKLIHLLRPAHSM
Chain of Glycogen synthase kinase-3 alpha (Homo sapiens) (P49840 2-483 limits assumed): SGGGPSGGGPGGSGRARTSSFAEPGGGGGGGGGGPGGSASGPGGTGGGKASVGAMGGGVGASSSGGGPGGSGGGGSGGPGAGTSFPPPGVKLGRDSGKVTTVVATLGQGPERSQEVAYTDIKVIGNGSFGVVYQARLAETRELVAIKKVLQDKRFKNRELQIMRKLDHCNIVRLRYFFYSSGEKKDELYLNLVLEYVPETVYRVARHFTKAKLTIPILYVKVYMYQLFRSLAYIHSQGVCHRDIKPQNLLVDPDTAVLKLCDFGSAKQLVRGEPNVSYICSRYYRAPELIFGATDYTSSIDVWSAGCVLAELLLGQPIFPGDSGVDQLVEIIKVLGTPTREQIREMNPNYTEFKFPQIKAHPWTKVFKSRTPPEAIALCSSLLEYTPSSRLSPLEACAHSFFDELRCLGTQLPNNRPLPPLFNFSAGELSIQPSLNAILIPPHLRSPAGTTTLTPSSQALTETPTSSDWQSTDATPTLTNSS
Chain of Calcium/calmodulin-dependent protein kinase kinase 2 (Homo sapiens) (Q96RR4 2-588 limits assumed): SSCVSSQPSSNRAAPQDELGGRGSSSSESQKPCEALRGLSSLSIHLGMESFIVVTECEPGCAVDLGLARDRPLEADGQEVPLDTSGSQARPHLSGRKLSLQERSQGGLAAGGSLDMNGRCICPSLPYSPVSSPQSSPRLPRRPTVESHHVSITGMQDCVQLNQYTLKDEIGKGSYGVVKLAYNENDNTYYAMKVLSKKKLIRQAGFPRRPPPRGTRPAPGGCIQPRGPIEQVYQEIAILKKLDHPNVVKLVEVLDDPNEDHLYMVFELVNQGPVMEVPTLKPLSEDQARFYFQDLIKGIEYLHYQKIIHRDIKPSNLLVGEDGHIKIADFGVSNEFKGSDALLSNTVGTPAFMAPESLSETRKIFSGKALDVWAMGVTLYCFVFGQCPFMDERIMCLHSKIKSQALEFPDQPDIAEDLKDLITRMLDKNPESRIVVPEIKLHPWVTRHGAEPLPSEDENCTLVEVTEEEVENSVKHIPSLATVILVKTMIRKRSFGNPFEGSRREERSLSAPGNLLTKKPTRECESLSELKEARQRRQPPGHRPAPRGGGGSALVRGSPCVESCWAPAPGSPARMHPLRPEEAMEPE
Chain of Activin receptor type-2A (Homo sapiens) (P27037 whole entry): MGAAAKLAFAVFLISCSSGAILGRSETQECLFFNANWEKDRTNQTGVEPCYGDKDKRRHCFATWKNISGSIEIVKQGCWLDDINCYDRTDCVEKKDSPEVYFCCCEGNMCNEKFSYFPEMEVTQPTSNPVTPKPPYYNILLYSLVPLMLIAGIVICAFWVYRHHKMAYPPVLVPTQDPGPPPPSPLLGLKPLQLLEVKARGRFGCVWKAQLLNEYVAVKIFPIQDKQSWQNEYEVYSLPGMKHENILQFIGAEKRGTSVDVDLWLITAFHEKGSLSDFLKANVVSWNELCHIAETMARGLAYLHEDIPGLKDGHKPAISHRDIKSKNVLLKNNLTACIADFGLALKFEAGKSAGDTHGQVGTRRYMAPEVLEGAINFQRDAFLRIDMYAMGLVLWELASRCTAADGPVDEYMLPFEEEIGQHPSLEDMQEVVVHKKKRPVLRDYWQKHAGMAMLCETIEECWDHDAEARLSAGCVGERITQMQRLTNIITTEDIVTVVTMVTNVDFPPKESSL
Chain of Mitotic checkpoint serine/threonine-protein kinase BUB1 (Homo sapiens) (O43683 whole entry, looked up): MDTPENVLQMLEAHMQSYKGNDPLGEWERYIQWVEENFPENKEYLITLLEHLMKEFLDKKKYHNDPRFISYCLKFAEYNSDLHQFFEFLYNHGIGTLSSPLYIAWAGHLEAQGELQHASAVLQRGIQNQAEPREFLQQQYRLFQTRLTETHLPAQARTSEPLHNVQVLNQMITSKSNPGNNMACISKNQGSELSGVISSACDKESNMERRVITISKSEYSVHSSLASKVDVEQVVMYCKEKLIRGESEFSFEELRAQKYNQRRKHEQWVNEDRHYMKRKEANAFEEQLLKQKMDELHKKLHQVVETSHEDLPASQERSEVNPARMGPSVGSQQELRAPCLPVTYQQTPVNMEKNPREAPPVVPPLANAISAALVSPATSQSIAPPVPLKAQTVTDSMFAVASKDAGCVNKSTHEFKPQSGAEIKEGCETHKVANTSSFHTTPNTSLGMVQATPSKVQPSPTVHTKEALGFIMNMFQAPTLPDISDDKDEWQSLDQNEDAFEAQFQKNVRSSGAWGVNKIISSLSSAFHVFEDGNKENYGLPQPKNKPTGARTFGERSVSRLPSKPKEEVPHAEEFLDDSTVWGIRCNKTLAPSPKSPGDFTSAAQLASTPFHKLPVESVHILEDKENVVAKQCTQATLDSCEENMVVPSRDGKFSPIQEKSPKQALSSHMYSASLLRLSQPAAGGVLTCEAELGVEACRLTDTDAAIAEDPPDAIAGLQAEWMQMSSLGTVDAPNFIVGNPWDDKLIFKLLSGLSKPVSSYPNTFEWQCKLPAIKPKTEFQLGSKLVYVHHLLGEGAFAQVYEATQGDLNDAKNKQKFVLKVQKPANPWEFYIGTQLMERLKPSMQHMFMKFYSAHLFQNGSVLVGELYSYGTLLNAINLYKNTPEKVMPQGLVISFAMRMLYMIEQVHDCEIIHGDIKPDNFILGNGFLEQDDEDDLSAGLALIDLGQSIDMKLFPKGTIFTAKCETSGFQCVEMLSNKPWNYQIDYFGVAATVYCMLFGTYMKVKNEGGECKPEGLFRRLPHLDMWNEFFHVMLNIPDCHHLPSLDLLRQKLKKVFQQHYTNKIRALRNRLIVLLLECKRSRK

In the case of `CN(C)C(=O)c1ccc(N2CCCN(c3ccnc4sc(C(N)=O)c(N)c34)CC2)cc1`, the Activity [1] was 93% and 94%, the Activity (Myc-CaP [2]) was “Active” and the Activity [3] was 100%. The Activity [4] was 99% and 100%, the Activity [5] was 100% and the Activity [6] was 100%. For the same compound, the Activity [7] was 100%, the Activity [8] was 95% and 100% and the Activity [9] was 95% and 100%. For the same compound, the Activity [10] was 94% and 86%, the Activity (MDA-MB-468) was “Active” and the Activity [11] was 77%. The Activity ([11]; INHIBITOR) was 10%, the Activity [12] was 100% and 84% and the Activity [13] was 79% and 88%. For the same compound, the Activity [14] was 95% and 92%, the Activity [15] was 80% and the Activity ([15]; INHIBITOR) was 40%. For the same compound, the Activity [16] was 100% and 97%, the Activity [17] was 100% and the Activity [18] was 100% and 89%. For the same compound, the Activity [19] was 68%, the Activity ([19]; INHIBITOR) was 47% and the Activity [20] was 95% and 75%. The Activity [21] was 88% and 80%, the Activity [22] was 97% and 85% and the Activity [23] was 71% and 80%. For the same compound, the Activity [24] was 93% and 94%, the Activity [25] was 31% and 34% and the Activity [26] was 93% and 100%. For the same compound, the Activity [27] was 100% and 87%, the inhibition (Myc-CaP [28]) was “Active” and the Activity [29] was 95%.
